Literature values as cited in patent publication US9662356B1, “Propolis-metal nanoparticle composition and methods of use” (Vets Plus, Inc., priority 2015, dated 2017).

System: otitis externa
Conditions: case history: treated previously over the course of the year

Which “outcome of previous antibiotic treatment of otitis externa” value (shortened to “outcome”) does the source give for `C[C@@H]1[C@H](O)[C@@H](C)/C=C/C=C/CC/C=C/C=C/C=C/C=C/C(O[C@H]2O[C@H](C)[C@@H](O)[C@H](N)[C@@H]2O)CC2O[C@](O)(CC(O)C(O)CCC(O)CC(O)CC(O)CC(=O)O[C@H]1C)CC(O)C2C(=O)O` (stereo partly drawn) [nystatin] here?
The value was “to no avail”.

For neomycin, which “outcome” value is on record?
The value was “to no avail”.

With polymyxin B as the compound, how does the “outcome” value read?
Its value is “to no avail”.
